# How the values were obtained:
# CYP2C9 = biological target: T1, CYP2C9 (Homo sapiens, UniProt P11712); experiment: CYP inhibition in HLM: S-warfarin 7-hydroxylation; type: in vitro ADME; conditions: 10 or 50 μM
# T1 construct: tissue Gentest Corp. (Woburn, Mass.); host or cells: pooled human liver microsomes
# Description: (§1) The incubations were carried out in test tubes (12.0×75 mm). The incubation mixtures (250 μL) contained 0.5 mg of HLM protein, 50 (CYP1A2 and CYP2E1) or 25 (CYP2C9, CYP2C19, CYP2D6 and CYP3A4) pmol of recombinant human CYPs, Compound 1 (10 or 50 μM), probe substrate (R—, S-warfarin, chlorzoxazone, S-mephenyloin, or bufuralol) at different concentrations, and 0.5 mg of NADPH in 50 mM Tris buffer containing 15 mM MgCl2 (pH 7.4). Compound 1 was added to the reaction mixture 5 minutes prior to the addition of the probe substrate. […]
# (§2) The quantification was based on the calibration curves, and the quality control (QC) samples were applied to ensure the quality of the experiments. […]
# 1. CYP1A2/2C9/3A4-mediated warfarin 6-, 7-, 8-, and 10-hydroxylation (Zhang et al., Drug Metab. Dispos. 23:1339-1346, 1995; Rettie et al., Chem. Res. Toxicol. 5:54-59, 1992; Brian et al., Biochemistry 29:11280-11292, 1990): Hewlett Packard 1100 HPLC system (Waldbronn, Germany) comprised a binary pump, an autosampler, a column compartment unit, a photodiode array detector (PDA), and a fluorescence detector. […] The warfarin metabolites, 6-, 8-, and 10-hydroxywarfarin, were monitored by UV at 313 nm, and 7-hydroxywarfarin by fluorescence at Ex320 nm/Em380 nm. […]
# CYP2D6 = CYP2D6 (Homo sapiens, UniProt P10635); experiment: CYP inhibition in HLM: bufuralol 1'-hydroxylation; type: in vitro ADME; set-up: tissue Gentest Corp. (Woburn, Mass.); host or cells: pooled human liver microsomes; conditions: in the presence of Compound 1, concentration-dependent
# Description: as §1, §2
# 3. […] Multiple reaction monitoring (MRM) was applied for the quantification. […]
# Data were acquired and analyzed by ChemStation (Version 6.03, Hewlett Packard, Waldbronn, Germany) for 6-, 7-, and 10-hydroxywarfarin and 6-hydroxychlorzoxazone, and MacQuan (Version 1.6, PE Biosystem, Foster City, Calif.) for 1′-hydroxybufuralol and 4′-hydroxymephenytoin. Quantification was based on peak area ratios of metabolites over the respective IS against the respective concentration of the metabolites. […] The metabolic rates were determined using Excel (Microsoft Office 97, Microsoft Corporation, Redmond, Wash.) or SigmaPlot (Version 6.00, SPSS Inc. Chicago, Ill.). […]
# Sequence of CYP2D6 (P10635 whole entry): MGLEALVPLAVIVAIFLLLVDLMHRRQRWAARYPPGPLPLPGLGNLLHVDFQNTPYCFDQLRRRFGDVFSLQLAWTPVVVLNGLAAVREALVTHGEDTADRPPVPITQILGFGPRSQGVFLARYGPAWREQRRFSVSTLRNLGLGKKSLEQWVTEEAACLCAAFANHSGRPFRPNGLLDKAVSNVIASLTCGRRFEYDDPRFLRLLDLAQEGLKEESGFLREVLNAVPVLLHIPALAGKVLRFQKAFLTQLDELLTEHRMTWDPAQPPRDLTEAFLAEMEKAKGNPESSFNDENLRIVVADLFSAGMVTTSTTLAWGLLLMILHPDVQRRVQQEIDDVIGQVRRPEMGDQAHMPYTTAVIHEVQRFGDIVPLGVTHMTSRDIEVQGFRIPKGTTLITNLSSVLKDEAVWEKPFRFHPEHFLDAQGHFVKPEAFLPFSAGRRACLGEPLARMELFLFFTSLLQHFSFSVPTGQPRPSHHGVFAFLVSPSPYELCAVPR
# T1 sequence (P11712 whole entry): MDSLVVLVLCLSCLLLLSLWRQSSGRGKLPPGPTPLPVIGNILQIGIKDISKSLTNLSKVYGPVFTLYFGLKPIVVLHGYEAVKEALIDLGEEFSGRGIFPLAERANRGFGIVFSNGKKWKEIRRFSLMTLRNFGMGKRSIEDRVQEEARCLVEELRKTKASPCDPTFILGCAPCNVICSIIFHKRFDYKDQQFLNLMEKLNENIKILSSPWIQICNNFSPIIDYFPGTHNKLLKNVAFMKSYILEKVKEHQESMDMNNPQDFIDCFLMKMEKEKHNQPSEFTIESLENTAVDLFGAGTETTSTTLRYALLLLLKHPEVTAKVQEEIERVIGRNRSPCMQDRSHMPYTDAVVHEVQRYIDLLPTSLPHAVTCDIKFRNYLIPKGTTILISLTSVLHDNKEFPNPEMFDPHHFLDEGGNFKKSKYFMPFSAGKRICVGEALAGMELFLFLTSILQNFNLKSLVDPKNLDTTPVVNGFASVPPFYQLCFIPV
structure (smiles),measurement,setting,value
"CNC(=O)Cc1ccc2ccn(C3CCN(CCc4ccccc4F)CC3)c2c1 [Compound 1, N-methyl-[1-[1-(2-fluorophenethyl)piperidine-4-yl]-1H-indol-6-yl] acetamide]",inhibitory effect on CYP2C9 activity (in words),CYP2C9,no inhibitory effect
same,effect on CYP2D6-mediated bufuralol 1'-hydroxylation activity (in words),CYP2D6,significantly reduced

# Source: patent US20050033056A1, “Hydroxylated indole derivatives and uses thereof” (priority 2001, published 2005)
